Source: patent US12606523B2, “Deuterated organic compounds and uses thereof” (ENGRAIL THERAPEUTICS, INC., priority 2022, dated 2026)

Tests used:
[1] = target: T1, human Serotonin 5-HT1A receptor (Homo sapiens, UniProt P08908); conditions: cAMP; % of reference agonist at EC100
T1 sequence (P08908 1-422): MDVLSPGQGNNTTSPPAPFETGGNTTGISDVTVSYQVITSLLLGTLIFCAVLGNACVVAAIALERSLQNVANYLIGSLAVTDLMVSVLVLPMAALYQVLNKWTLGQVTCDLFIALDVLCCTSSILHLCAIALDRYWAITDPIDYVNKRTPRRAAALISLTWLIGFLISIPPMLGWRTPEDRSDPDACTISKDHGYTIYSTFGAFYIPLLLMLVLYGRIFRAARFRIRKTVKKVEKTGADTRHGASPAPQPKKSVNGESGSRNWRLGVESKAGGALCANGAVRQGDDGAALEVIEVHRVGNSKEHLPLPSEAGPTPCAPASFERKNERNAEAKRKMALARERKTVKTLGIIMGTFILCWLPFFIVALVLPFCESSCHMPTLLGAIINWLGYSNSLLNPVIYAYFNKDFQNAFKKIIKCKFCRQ
Protocol: (§1) SPA ^35S-GTPgS experiments are conducted with membrane preparations. IP-One and cAMP HTRF assays are conducted with recombinant cell lines.
(§2) Agonist activity of test compounds is expressed as a percentage of the activity of the reference agonist at its EC100 concentration. Antagonist activity of the test compound is expressed as a percentage of the inhibition of reference agonist activity at its EC80 concentration.

[2] = target: T2, human Serotonin 5-HT2A receptor (Homo sapiens, UniProt P28223); conditions: IP-one; % of reference agonist at EC100
Protocol: as §1, §2

Sprague Dawley rats [3] = assay: DOI-induced headshake response; assay type: in vivo; conditions: rat
Protocol: Adult male Sprague Dawley rats are used. […] DOI (3 mg/kg) is dissolved in saline and administered IP at a dose volume of 1 ml/kg (10 minutes prior to test). Ketanserin (1 mg/kg) is dissolved in saline and injected IP 30 minutes prior to DOI at a dose volume of […].
Rats are then injected with DOI and headshakes are recorded 10 minutes after DOI injection for 10 minutes using video cameras. The headshake response is a rapid, rhythmic shaking of the head in a radial motion. Data is analyzed by ANOVA followed by post hoc analysis where appropriate.

Sprague Dawley rats [4] = assay: Headshake response; assay type: in vivo, rat
Protocol: Adult male Sprague Dawley rats are used. […] DOI (3 mg/kg) is dissolved in saline and administered IP at a dose volume of 1 ml/kg (10 minutes prior to test).
The headshake response is a rapid, rhythmic shaking of the head in a radial motion. Data are analyzed by ANOVA followed by post hoc analysis where appropriate.

5-HT1A = target: T3, 5-HT1A (Homo sapiens, UniProt P08908); assay: Functional assay, antagonist mode (Table 6); assay type: cell-based; conditions: read-out: 5-HT1A (antagonist mode) Emax
T3 sequence (P08908 1-422): T1 sequence (P08908 1-422)

Sprague Dawley rats [5] = assay: Touchscreen-based rat Probabilistic Reward Task; assay type: in vivo
Description: The Probabilistic Reward Task (PRT) uses visual discrimination methodology to quantify reward responsiveness to both identify deficits and characterize drug-induced improvements.
Male Sprague Dawley rats are used in the present study.
Briefly, a custom-built Plexiglas chamber (25×30×35 cm) is situated in a sound- and light-attenuating enclosure (40×60×45 cm). A 17″ touch-sensitive screen (1739L, ELO TouchSystems, Menlo Park, CA) comprises the inside right-hand wall of the enclosure. An infusion pump (PHM-100-5, Med Associates, St. Albans, VT) outside the enclosure is used to deliver sweetened condensed milk solution into the shallow reservoir of a custom-designed aluminum receptacle. The receptacle is mounted 3 cm above the floor bars and centered on the left-hand inside wall. Both touchscreen and fluid reservoir are easily accessible to the subject. A speaker bar (NQ576AT, Hewlett-Packard, Palo Alto, CA) mounted above the touchscreen is used to emit audible feedback. All experimental events and data collection are programmed in E-Prime Professional 2.0 (Psychology Software Tools, Inc., Sharpsburg, PA). […]
Following line-length discrimination training, probabilistic reinforcement schedules are introduced. […] These probabilistic contingencies are assessed across 5 consecutive sessions prior to initiation of drug testing. […]

5-HT2B = 5-HT2B (Homo sapiens, UniProt P41595); assay: Functional assay, antagonist mode (Table 6); assay type: cell-based
[6] = target: T4, human Serotonin 5-HT7A receptor (Homo sapiens, UniProt P34969); assay: Radioligand binding competition, filtration, [3H]-LSD, CHO-K1 membranes
T4 construct: expressed in transfected cells; host or cells: CHO-K1

[7] = target: human Dopamine D2L receptor (Homo sapiens, UniProt P14416); conditions: cAMP, % inhibition of reference agonist at EC80
Protocol: as §1, §2

[8] = target: T4, human Serotonin 5-HT7A receptor; assay: cAMP HTRF functional assay, antagonist mode; assay type: cell-based
Sprague Dawley rats [9] = conditions: rat, in vivo, po, 5 mg/kg
Description: (§3) The Conditioned Avoidance Response (CAR) Test is an animal model screening for antipsychotic drugs.

Sprague Dawley rats [10] = assay: Conditioned Avoidance Response test; conditions: rat
Description: as §3

[11] = target: T2, human Serotonin 5-HT2A receptor; assay: IP-One HTRF functional assay, antagonist mode; assay type: cell-based; design: expressed in transfected cells; host or cells: CHO-K1; conditions: % inhibition of reference agonist at EC80
Protocol: (§4) IP-One and cAMP HTRF assays are conducted with recombinant cell lines.
as §2

[12] = target: T5, human Dopamine D4.4 receptor (Homo sapiens, UniProt P21917); conditions: cAMP; % inhibition of reference agonist at EC80
T5 sequence (P21917 1-419): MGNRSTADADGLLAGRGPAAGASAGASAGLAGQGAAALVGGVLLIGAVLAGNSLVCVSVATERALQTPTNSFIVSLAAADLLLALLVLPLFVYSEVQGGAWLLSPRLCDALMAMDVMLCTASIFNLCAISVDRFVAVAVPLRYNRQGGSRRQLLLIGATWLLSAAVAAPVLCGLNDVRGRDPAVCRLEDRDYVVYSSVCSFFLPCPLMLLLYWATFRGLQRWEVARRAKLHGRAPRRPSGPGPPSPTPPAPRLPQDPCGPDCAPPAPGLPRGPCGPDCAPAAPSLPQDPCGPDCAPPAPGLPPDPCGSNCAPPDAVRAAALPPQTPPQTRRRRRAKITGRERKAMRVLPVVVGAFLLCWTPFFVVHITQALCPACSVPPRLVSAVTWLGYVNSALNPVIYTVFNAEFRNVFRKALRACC
Protocol: as §1, §2

[13] = target: human Dopamine D2S receptor (Homo sapiens, UniProt P14416); conditions: cAMP, % inhibition of reference agonist at EC80
Protocol: as §4, §2

[14] = target: human Dopamine D3 receptor (Homo sapiens, UniProt P35462); conditions: GTPγS; % inhibition of reference agonist at EC80
Protocol: as §1, §2

[15] = 2.5 and 5 mg/kg orally 4 hours prior to test
[16] = 0.5 mg/kg i.p. 30 minutes prior to test

T4 sequence (P34969 1-445 isoform P34969-2): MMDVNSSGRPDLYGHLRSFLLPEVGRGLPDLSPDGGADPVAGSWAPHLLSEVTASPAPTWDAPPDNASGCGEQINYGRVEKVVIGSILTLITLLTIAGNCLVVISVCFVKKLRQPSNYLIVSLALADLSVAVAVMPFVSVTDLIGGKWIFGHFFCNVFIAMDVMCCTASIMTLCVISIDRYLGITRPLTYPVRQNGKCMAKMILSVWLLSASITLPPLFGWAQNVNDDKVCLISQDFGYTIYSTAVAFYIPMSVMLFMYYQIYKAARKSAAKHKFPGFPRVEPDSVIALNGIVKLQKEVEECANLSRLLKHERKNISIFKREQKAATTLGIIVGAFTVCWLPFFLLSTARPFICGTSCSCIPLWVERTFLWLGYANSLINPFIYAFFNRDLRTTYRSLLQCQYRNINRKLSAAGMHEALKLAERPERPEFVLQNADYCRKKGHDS
T2 sequence (P28223 whole entry): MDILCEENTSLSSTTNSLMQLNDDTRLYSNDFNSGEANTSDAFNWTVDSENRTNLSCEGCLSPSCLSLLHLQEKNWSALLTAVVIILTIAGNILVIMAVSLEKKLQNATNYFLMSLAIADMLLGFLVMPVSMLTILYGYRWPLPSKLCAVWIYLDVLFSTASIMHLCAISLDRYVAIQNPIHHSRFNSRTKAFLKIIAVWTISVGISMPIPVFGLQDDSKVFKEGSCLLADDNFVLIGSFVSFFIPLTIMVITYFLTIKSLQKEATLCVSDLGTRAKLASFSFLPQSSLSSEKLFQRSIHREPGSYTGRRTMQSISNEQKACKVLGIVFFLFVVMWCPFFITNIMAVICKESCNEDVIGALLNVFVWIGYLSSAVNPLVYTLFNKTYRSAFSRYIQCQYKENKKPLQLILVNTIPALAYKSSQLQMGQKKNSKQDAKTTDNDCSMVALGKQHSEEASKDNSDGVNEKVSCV
Sequence of human Dopamine D2L receptor (P14416 whole entry): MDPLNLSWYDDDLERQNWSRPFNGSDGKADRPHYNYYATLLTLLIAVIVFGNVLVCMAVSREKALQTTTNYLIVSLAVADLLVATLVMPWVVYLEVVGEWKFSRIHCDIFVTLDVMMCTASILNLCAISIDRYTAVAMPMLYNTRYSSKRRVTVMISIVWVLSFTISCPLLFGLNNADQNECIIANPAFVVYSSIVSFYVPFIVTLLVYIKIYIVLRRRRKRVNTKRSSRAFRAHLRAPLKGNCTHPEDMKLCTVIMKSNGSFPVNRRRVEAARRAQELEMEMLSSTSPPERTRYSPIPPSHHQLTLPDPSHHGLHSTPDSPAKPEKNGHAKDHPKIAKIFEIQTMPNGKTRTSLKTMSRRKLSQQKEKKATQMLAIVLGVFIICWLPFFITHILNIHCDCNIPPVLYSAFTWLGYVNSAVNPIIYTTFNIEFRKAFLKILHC
Sequence of human Dopamine D2S receptor (P14416 1-414 isoform P14416-2): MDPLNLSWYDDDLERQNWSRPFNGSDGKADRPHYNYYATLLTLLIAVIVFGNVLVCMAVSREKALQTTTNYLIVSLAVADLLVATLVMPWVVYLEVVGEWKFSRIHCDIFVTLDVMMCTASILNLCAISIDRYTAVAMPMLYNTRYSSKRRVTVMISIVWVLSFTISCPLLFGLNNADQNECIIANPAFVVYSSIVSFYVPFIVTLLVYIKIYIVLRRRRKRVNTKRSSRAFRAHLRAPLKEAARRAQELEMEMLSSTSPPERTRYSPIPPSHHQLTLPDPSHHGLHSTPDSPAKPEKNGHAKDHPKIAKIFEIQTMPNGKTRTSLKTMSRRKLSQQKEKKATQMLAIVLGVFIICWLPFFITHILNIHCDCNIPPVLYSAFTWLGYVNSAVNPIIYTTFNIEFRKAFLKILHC
Sequence of human Dopamine D3 receptor (P35462 whole entry): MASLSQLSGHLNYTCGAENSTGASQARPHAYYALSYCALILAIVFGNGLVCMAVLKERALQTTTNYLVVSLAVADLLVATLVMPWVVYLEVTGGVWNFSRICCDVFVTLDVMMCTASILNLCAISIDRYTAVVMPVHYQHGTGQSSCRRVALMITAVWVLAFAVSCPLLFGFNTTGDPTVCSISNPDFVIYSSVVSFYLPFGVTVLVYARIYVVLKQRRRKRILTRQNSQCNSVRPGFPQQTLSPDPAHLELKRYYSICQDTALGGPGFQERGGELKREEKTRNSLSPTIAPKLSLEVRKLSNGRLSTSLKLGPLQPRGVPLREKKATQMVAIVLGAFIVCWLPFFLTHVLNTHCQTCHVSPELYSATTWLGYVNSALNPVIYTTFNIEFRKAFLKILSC
Sequence of 5-HT2B (P41595 whole entry): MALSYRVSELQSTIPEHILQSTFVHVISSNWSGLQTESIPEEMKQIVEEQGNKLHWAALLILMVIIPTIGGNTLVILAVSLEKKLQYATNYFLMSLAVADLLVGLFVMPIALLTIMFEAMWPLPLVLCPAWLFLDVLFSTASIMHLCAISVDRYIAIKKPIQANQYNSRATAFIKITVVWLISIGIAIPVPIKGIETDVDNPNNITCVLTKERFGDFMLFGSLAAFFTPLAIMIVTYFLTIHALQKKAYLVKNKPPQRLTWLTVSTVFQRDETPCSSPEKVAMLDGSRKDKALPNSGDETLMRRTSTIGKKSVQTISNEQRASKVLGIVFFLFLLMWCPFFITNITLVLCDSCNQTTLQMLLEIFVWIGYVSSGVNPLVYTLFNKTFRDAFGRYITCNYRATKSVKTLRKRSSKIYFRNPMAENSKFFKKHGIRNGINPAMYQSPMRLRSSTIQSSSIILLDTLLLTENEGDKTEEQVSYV

CNc1cc(OC)c(C(=O)N[C@H]2CCN(Cc3ccccc3)[C@H]2C)cc1Cl (racemic) [Nemonapride, (±)-cis-N-(1-Benzyl-2-methylpyrrolidin-3-yl)-5-chloro-2-methoxy-4-methylaminobenzamide]
5-HT1A (agonist mode) Top % Activation at maximal concentration [1]: cAMP 52%
5-HT2A (agonist mode) Top % Activation at maximal concentration [2]: IP-one 48%

COc1cc(CC(C)N)c(OC)cc1I (centres unmarked) [DOI, reference compound]
number of headshakes compared to vehicle (Sprague Dawley rats [3]; DOI 3 mg/kg IP): significantly increases
number of headshakes compared to vehicle (Sprague Dawley rats [4]; rat, 3 mg/kg IP 10 minutes prior to test): significantly increases

[2H]C([2H])([2H])Nc1cc(OC)c(C(=O)N[C@H]2CCN(C([2H])([2H])c3ccccc3)[C@H]2C)cc1Cl [Example A1, 5-Chloro-N-((2S,3S)-1-(dideutero(phenyl)methyl)-2-methylpyrrolidin-3-yl)-2-methoxy-4-(trideuteromethylamino)benzamide]
Emax (5-HT1A): 63%
DOI-induced headshake responses (Sprague Dawley rats [3]; 1 mg/kg PO 4 hours prior, DOI 3 mg/kg IP, p=0.051): non-significant trend to decreasing
DOI-induced headshake responses (Sprague Dawley rats [3]; 5 and 10 mg/kg PO 4 hours prior, DOI 3 mg/kg IP): decrease
log b vs vehicle, Cohen's d (Sprague Dawley rats [5]; 0.5 mg/kg orally, n=8, paired t-test p=0.006): 1.21
log b vs vehicle, Cohen's d (Sprague Dawley rats [5]; 1 mg/kg orally, n=8, paired t-test p=0.04): 0.75
number of headshakes compared to vehicle (Sprague Dawley rats [4]; rat, 1, 5 and 10 mg/kg PO 4 hours prior to test): no significant increase
Emax (5-HT2B): 92%
Ki [6]: 74.4 nM
D2 (antagonist mode) Top % Inhibition at maximal concentration, D2L [7]: cAMP 81 (D2L) %
IC50 [8]: 2240 nM
escape failures compared to vehicle (Sprague Dawley rats [9]): increase
number of avoidance responses compared to vehicle (Sprague Dawley rats [10]; [15]): significantly decrease
percent avoidance compared to vehicle (Sprague Dawley rats [10]; [15]): significantly decrease

O=C(c1ccc(F)cc1)C1CCN(CCn2c(=O)[nH]c3ccccc3c2=O)CC1 [Ketanserin, reference compound]
DOI-induced headshake responses (Sprague Dawley rats [3]; 1 mg/kg IP 30 minutes prior to DOI 3 mg/kg IP): decrease

CNc1cc(OC)c(C(=O)N[C@H]2CCN(Cc3ccccc3)[C@H]2C)cc1Cl [cis (S,S) nemonapride, N-[(2S,3S)-1-benzyl-2-methylpyrrolidin-3-yl]-5-chloro-2-methoxy-4-(methylamino)benzamide]
5-HT2A (antagonist mode) Top % Inhibition at maximal concentration [11]: IP-one 52%
5-HT1A (agonist mode) Top % Activation at maximal concentration [1]: cAMP 17%
IC50 [6]: 167 nM
Ki [6]: 117 nM
D4 (antagonist mode) Top % Inhibition at maximal concentration [12]: cAMP 67%
D2 (antagonist mode) Top % Inhibition at maximal concentration, D2S [13]: cAMP 88 (D2S) %
D2 (antagonist mode) Top % Inhibition at maximal concentration, D2L [7]: cAMP 84 (D2L) %
5-HT2A (agonist mode) Top % Activation at maximal concentration [2]: IP-one 29%
D3 (antagonist mode) Top % Inhibition at maximal concentration [14]: GTPγS 117%

Cc1nc2n(c(=O)c1CCN1CCC(c3noc4cc(F)ccc34)CC1)CCCC2 [risperidone, Risperidone, reference compound]
number of avoidance responses compared to vehicle (Sprague Dawley rats [10]; [16]): significantly decrease
percent avoidance compared to vehicle (Sprague Dawley rats [10]; [16]): significantly decrease
